Experiment in all cases: relative viability (nuclei count vs DMSO), 5 days (fraction); higher = more cells survive
Compound in the assay “Carfilzomib + Alpelisib”: CC(C)C[C@H](NC(=O)[C@H](CCc1ccccc1)NC(=O)CN1CCOCC1)C(=O)N[C@@H](Cc1ccccc1)C(=O)N[C@@H](CC(C)C)C(=O)[C@@]1(C)CO1 [Carfilzomib] + Cc1nc(NC(=O)N2CCC[C@H]2C(N)=O)sc1-c1ccnc(C(C)(C)C(F)(F)F)c1 [Alpelisib] (partner 2 µM)
Summed up:
(§1)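 Lung cancer cell lines were seeded in 1536-well plates and dosed by pin tool the next day, with either a single drug or a fixed anchor-drug dose combined with five library-drug doses (not always all listed) spaced in √10 steps. Five days later, one step fixed the cells and stained their nuclei (final 0.05% Triton X-100, 1% formaldehyde, 1 ug/ml Hoechst), and nuclei were counted on 4× images. Relative viability is the nuclei count in treated wells divided by the count in vehicle wells, and each value is the median of duplicate plates.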

Compound in the assay “Crizotinib + Tozasertib”: C[C@@H](Oc1cc(-c2cnn(C3CCNCC3)c2)cnc1N)c1c(Cl)ccc(F)c1Cl [Crizotinib] + Cc1cc(Nc2cc(N3CCN(C)CC3)nc(Sc3ccc(NC(=O)C4CC4)cc3)n2)n[nH]1 [Tozasertib] (partner 0.1 µM)
Summed up: as §1

Compound in the assay “Crizotinib + Olaparib”: C[C@@H](Oc1cc(-c2cnn(C3CCNCC3)c2)cnc1N)c1c(Cl)ccc(F)c1Cl [Crizotinib] + O=C(c1cc(Cc2n[nH]c(=O)c3ccccc23)ccc1F)N1CCN(C(=O)C2CC2)CC1 [Olaparib] (partner 8 µM)
Summed up: as §1

Compound in the assay “Olaparib + Crizotinib”: O=C(c1cc(Cc2n[nH]c(=O)c3ccccc23)ccc1F)N1CCN(C(=O)C2CC2)CC1 [Olaparib] + C[C@@H](Oc1cc(-c2cnn(C3CCNCC3)c2)cnc1N)c1c(Cl)ccc(F)c1Cl [Crizotinib] (partner 1 µM)
A digest of the protocol: as §1

For the cell line 201T, the relative viability with Carfilzomib + Alpelisib (first compound 0.001 µM) was 0.986; with Carfilzomib + Alpelisib (first compound 0.003162 µM) it was 1.05; with Carfilzomib + Alpelisib (first compound 0.01 µM), 0.983; with Carfilzomib + Alpelisib (first compound 0.03162 µM), 1.07; with Carfilzomib + Alpelisib (first compound 0.1 µM) it was 0.893; with Crizotinib + Tozasertib (first compound 0.01 µM), 0.924. Moreover, the relative viability is 0.947 with Crizotinib + Tozasertib (first compound 0.03162 µM); 0.921 in the assay with Crizotinib + Tozasertib (first compound 0.1 µM); 0.927 with Crizotinib + Tozasertib (first compound 0.3162 µM); 0.978 in the assay with Crizotinib + Tozasertib (first compound 1 µM); 0.776 in the assay with Crizotinib + Olaparib (first compound 0.01 µM); 0.83 with Crizotinib + Olaparib (first compound 0.03162 µM). For the same cell line, the relative viability in the assay with Crizotinib + Olaparib (first compound 0.1 µM) is 0.892; with Crizotinib + Olaparib (first compound 0.3162 µM) it was 0.846; with Crizotinib + Olaparib (first compound 1 µM), 0.861; in the assay with Olaparib + Crizotinib (first compound 0.08 µM), 1.01; with Olaparib + Crizotinib (first compound 0.253 µM) it was 1; with Olaparib + Crizotinib (first compound 2.53 µM), 1.01. Moreover, the relative viability in the assay with Olaparib + Crizotinib (first compound 8 µM) was 0.973.

Turning to NCI-H2228, the relative viability with Carfilzomib + Alpelisib (first compound 0.001 µM) turned out to be 0.662; with Carfilzomib + Alpelisib (first compound 0.003162 µM) it was 0.73; with Carfilzomib + Alpelisib (first compound 0.01 µM) it was 0.49; in the assay with Carfilzomib + Alpelisib (first compound 0.03162 µM), 0.108; in the assay with Carfilzomib + Alpelisib (first compound 0.1 µM) it was 0.156; with Crizotinib + Tozasertib (first compound 0.01 µM) it was 0.237. For the same cell line, the relative viability stood at 0.229 in the assay with Crizotinib + Tozasertib (first compound 0.03162 µM); 0.172 with Crizotinib + Tozasertib (first compound 0.1 µM); 0.209 in the assay with Crizotinib + Tozasertib (first compound 0.3162 µM); 0.182 with Crizotinib + Tozasertib (first compound 1 µM); 0.539 with Crizotinib + Olaparib (first compound 0.01 µM); 0.595 with Crizotinib + Olaparib (first compound 0.03162 µM). The relative viability with Crizotinib + Olaparib (first compound 0.1 µM) was determined as 0.624; with Crizotinib + Olaparib (first compound 0.3162 µM) it was 0.716; in the assay with Crizotinib + Olaparib (first compound 1 µM), 0.668; with Olaparib + Crizotinib (first compound 0.08 µM), 0.603; in the assay with Olaparib + Crizotinib (first compound 0.253 µM), 0.437; in the assay with Olaparib + Crizotinib (first compound 2.53 µM) it was 0.473. The relative viability with Olaparib + Crizotinib (first compound 8 µM) is 0.362.

As to NCI-H2009, the relative viability with Carfilzomib + Alpelisib (first compound 0.001 µM) worked out at 1.24; with Carfilzomib + Alpelisib (first compound 0.003162 µM), 1.21; with Carfilzomib + Alpelisib (first compound 0.01 µM) it was 1.21; in the assay with Carfilzomib + Alpelisib (first compound 0.03162 µM), 0.959; with Carfilzomib + Alpelisib (first compound 0.1 µM), 0.0547; with Crizotinib + Tozasertib (first compound 0.01 µM) it was 0.746. The relative viability came out at 0.712 in the assay with Crizotinib + Tozasertib (first compound 0.03162 µM); 0.731 with Crizotinib + Tozasertib (first compound 0.1 µM); 0.678 in the assay with Crizotinib + Tozasertib (first compound 0.3162 µM); 0.665 with Crizotinib + Tozasertib (first compound 1 µM); 0.666 with Crizotinib + Olaparib (first compound 0.01 µM); 0.712 with Crizotinib + Olaparib (first compound 0.03162 µM). Further, the relative viability is 0.697 with Crizotinib + Olaparib (first compound 0.1 µM); 0.685 with Crizotinib + Olaparib (first compound 0.3162 µM); 0.741 with Crizotinib + Olaparib (first compound 1 µM); 1.19 with Olaparib + Crizotinib (first compound 0.08 µM); 0.999 with Olaparib + Crizotinib (first compound 0.253 µM); 1.06 with Olaparib + Crizotinib (first compound 2.53 µM). In the assay with Olaparib + Crizotinib (first compound 8 µM), the relative viability worked out at 1.01.

Consider NCI-H1975, for which the relative viability in the assay with Carfilzomib + Alpelisib (first compound 0.001 µM) stood at 0.584; in the assay with Carfilzomib + Alpelisib (first compound 0.003162 µM) it was 0.646; with Carfilzomib + Alpelisib (first compound 0.01 µM), 0.281; with Carfilzomib + Alpelisib (first compound 0.03162 µM) it was 0.117; in the assay with Carfilzomib + Alpelisib (first compound 0.1 µM) it was 0.126; with Crizotinib + Tozasertib (first compound 0.01 µM), 0.644. Besides, the relative viability with Crizotinib + Tozasertib (first compound 0.03162 µM) amounted to 0.705; in the assay with Crizotinib + Tozasertib (first compound 0.1 µM) it was 0.782; with Crizotinib + Tozasertib (first compound 0.3162 µM), 0.705; with Crizotinib + Tozasertib (first compound 1 µM), 0.746; in the assay with Crizotinib + Olaparib (first compound 0.01 µM) it was 0.806; with Crizotinib + Olaparib (first compound 0.03162 µM) it was 0.743. Also, the relative viability in the assay with Crizotinib + Olaparib (first compound 0.1 µM) turned out to be 0.794; with Crizotinib + Olaparib (first compound 0.3162 µM) it was 0.749; with Crizotinib + Olaparib (first compound 1 µM), 0.774; in the assay with Olaparib + Crizotinib (first compound 0.08 µM) it was 1.04; with Olaparib + Crizotinib (first compound 0.253 µM), 0.906; in the assay with Olaparib + Crizotinib (first compound 2.53 µM), 0.945. The relative viability in the assay with Olaparib + Crizotinib (first compound 8 µM) stood at 0.916.

Turning to NCI-H2347, the relative viability in the assay with Carfilzomib + Alpelisib (first compound 0.001 µM) is 0.96; with Carfilzomib + Alpelisib (first compound 0.003162 µM) it was 1.18; with Carfilzomib + Alpelisib (first compound 0.01 µM) it was 1.05; with Carfilzomib + Alpelisib (first compound 0.03162 µM) it was 0.875; with Carfilzomib + Alpelisib (first compound 0.1 µM), 0.345; with Crizotinib + Tozasertib (first compound 0.01 µM), 0.462. Further, the relative viability with Crizotinib + Tozasertib (first compound 0.03162 µM) is 0.564; with Crizotinib + Tozasertib (first compound 0.1 µM), 0.615; with Crizotinib + Tozasertib (first compound 0.3162 µM) it was 0.527; with Crizotinib + Tozasertib (first compound 1 µM) it was 0.422; with Crizotinib + Olaparib (first compound 0.01 µM), 0.584; with Crizotinib + Olaparib (first compound 0.03162 µM), 0.57. The relative viability worked out at 0.568 with Crizotinib + Olaparib (first compound 0.1 µM); 0.554 in the assay with Crizotinib + Olaparib (first compound 0.3162 µM); 0.578 in the assay with Crizotinib + Olaparib (first compound 1 µM); 0.672 with Olaparib + Crizotinib (first compound 0.08 µM); 0.657 with Olaparib + Crizotinib (first compound 0.253 µM); 0.705 with Olaparib + Crizotinib (first compound 2.53 µM). In addition, the relative viability with Olaparib + Crizotinib (first compound 8 µM) came to 0.622.

For PC-14, the relative viability in the assay with Carfilzomib + Alpelisib (first compound 0.001 µM) came out at 0.958; with Carfilzomib + Alpelisib (first compound 0.003162 µM), 0.981; in the assay with Carfilzomib + Alpelisib (first compound 0.01 µM), 0.976; with Carfilzomib + Alpelisib (first compound 0.03162 µM) it was 0.0805; in the assay with Carfilzomib + Alpelisib (first compound 0.1 µM) it was 0.0691; with Crizotinib + Tozasertib (first compound 0.01 µM), 0.545. The relative viability stood at 0.625 with Crizotinib + Tozasertib (first compound 0.03162 µM); 0.624 with Crizotinib + Tozasertib (first compound 0.1 µM); 0.593 with Crizotinib + Tozasertib (first compound 0.3162 µM); 0.602 with Crizotinib + Tozasertib (first compound 1 µM); 0.274 in the assay with Crizotinib + Olaparib (first compound 0.01 µM); 0.28 with Crizotinib + Olaparib (first compound 0.03162 µM). In addition, the relative viability with Crizotinib + Olaparib (first compound 0.1 µM) is 0.307; in the assay with Crizotinib + Olaparib (first compound 0.3162 µM), 0.401; with Crizotinib + Olaparib (first compound 1 µM) it was 0.289; with Olaparib + Crizotinib (first compound 0.08 µM), 0.883; in the assay with Olaparib + Crizotinib (first compound 0.253 µM), 0.824; in the assay with Olaparib + Crizotinib (first compound 2.53 µM), 0.849. Also, the relative viability with Olaparib + Crizotinib (first compound 8 µM) worked out at 0.657.

As to COR-L23, the relative viability with Carfilzomib + Alpelisib (first compound 0.001 µM) amounted to 0.735; with Carfilzomib + Alpelisib (first compound 0.003162 µM), 0.879; with Carfilzomib + Alpelisib (first compound 0.01 µM), 0.709; with Carfilzomib + Alpelisib (first compound 0.03162 µM), 0.0481; with Carfilzomib + Alpelisib (first compound 0.1 µM), 0.052; with Crizotinib + Tozasertib (first compound 0.01 µM), 0.21. In addition, the relative viability with Crizotinib + Tozasertib (first compound 0.03162 µM) worked out at 0.191; with Crizotinib + Tozasertib (first compound 0.1 µM) it was 0.22; in the assay with Crizotinib + Tozasertib (first compound 0.3162 µM) it was 0.195; with Crizotinib + Tozasertib (first compound 1 µM), 0.194; with Crizotinib + Olaparib (first compound 0.01 µM), 0.298; with Crizotinib + Olaparib (first compound 0.03162 µM), 0.343. For the same cell line, the relative viability is 0.372 in the assay with Crizotinib + Olaparib (first compound 0.1 µM); 0.366 with Crizotinib + Olaparib (first compound 0.3162 µM); 0.382 with Crizotinib + Olaparib (first compound 1 µM); 0.852 with Olaparib + Crizotinib (first compound 0.08 µM); 0.58 in the assay with Olaparib + Crizotinib (first compound 0.253 µM); 0.515 in the assay with Olaparib + Crizotinib (first compound 2.53 µM). Besides, the relative viability with Olaparib + Crizotinib (first compound 8 µM) turned out to be 0.274.

On to LK-2, for which the relative viability in the assay with Carfilzomib + Alpelisib (first compound 0.003162 µM) amounted to 1.59; in the assay with Carfilzomib + Alpelisib (first compound 0.01 µM), 1.1; with Carfilzomib + Alpelisib (first compound 0.03162 µM) it was 0.263; with Carfilzomib + Alpelisib (first compound 0.1 µM), 0.255; with Crizotinib + Tozasertib (first compound 0.01 µM), 0.173; with Crizotinib + Tozasertib (first compound 0.03162 µM), 0.177. Also, the relative viability was 0.197 in the assay with Crizotinib + Tozasertib (first compound 0.1 µM); 0.19 with Crizotinib + Tozasertib (first compound 1 µM); 0.678 in the assay with Crizotinib + Olaparib (first compound 0.01 µM); 0.638 with Crizotinib + Olaparib (first compound 0.03162 µM); 0.87 in the assay with Crizotinib + Olaparib (first compound 0.1 µM); 0.461 with Crizotinib + Olaparib (first compound 0.3162 µM). For the same cell line, the relative viability with Crizotinib + Olaparib (first compound 1 µM) was determined as 0.753; with Olaparib + Crizotinib (first compound 0.08 µM) it was 0.177; in the assay with Olaparib + Crizotinib (first compound 0.253 µM), 0.181; with Olaparib + Crizotinib (first compound 2.53 µM), 0.192; with Olaparib + Crizotinib (first compound 8 µM), 0.186.

The values are drawn from the supplement of paper PMC10307832.
